Measured values taken from patent publication US20250041461A1, “[177LU] LUTETIUM-PSMA I&T COMPOSITION AND DOSIMETRY, KIT, METHOD OF MAKING, AND METHOD OF USING THEREOF” (Curium US LLC, priority 2023, published 2025).
Several values for one entry are separate records, joined by “and”; a condition that tells them apart may be missing. Equal values may be shown once.

Test: Dosimetry sub-study, first 6 patients, cycle 1 (SPECT/CT, TIAC, OLINDA 2.2.3)
Format: in vivo, human
Conditions: for projected cumulative absorbed dose to the kidneys after 6 cycles: 7.4 GBq per cycle, number of cycles x absorbed dose at cycle 1
Experimental: Six subjects were administered a target dose of 7.4 GBq (mean 7.52±0.16 GBq) of ^177Lu-PSMA-I&T. Following the infusion, subjects underwent single photon emission computed tomography (SPECT)/computed tomography (CT) imaging at four timepoints (4 h, 24 h, 48 h, 168 h). Image data were analysed to compute time integrated activity coefficients (TIAC) in each organ of interest and/or with appreciable and meaningful ^177Lu-PSMA-I&T activity above background which included kidneys, bladder, liver, lumbar vertebrae L2-L4, lacrimal glands, salivary glands, intestine and whole body. To compute subject-specific organ doses, organ-level TIAC data were entered into Organ Level Internal Dose Assessment, OLINDA 2.2.3 and resulting organ doses for each target organ and whole-body effective dose were collated and averaged.
Patients received SPECT/CT imaging (anatomical coverage included the salivary gland and extended through the pelvis) following the injection of 7.4 (+/−10%) GBq of ^177Lu-PSMA-I&T (detailed injected doses are reported). All patients completed the first treatment cycle and the acquisition of images was carried out without any protocol deviation.
The imaging data was analyzed using Invicro's VivoQuant software, a validated software used in a 21 CFR § 11-compliant workflow. The general quantification approach was based on the principles detailed in MIRD Pamphlet No. 16 (Siegel J, Thomas S, Stubbs J, et al. MIRD pamphlet no. 16: Techniques for quantitative radiopharmaceutical biodistribution data acquisition and analysis for use in human radiation dose estimates. J Nucl Med. 1999; 40:37S-61S and MIRD Primer for Absorbed Dose Calculations, Revised Ed. J Nucl Med. 1991), No 23 (Dewaraja Y K, Frey E C, Sgouros G, et al. MIRD pamphlet No. 23: quantitative SPECT for patient-specific 3-dimensional dosimetry in internal radionuclide therapy. J Nucl Med. 2012; 53(8):1310-1325), and No 26 (Ljungberg M, Celler A, Konijnenberg M W, et al. MIRD Pamphlet No. 26: Joint EANM/MIRD Guidelines for Quantitative ^177Lu SPECT Applied for Dosimetry of Radiopharmaceutical Therapy. J Nucl Med. 2016; 57(1):151-162), as appropriate.
Each SPECT image was co-registered with its corresponding CT. Image calibration was performed to convert the counts measured on the SPECT images to activity (Bq) (Ljungberg et al. MIRD Pamphlet No. 26: Joint EANM/MIRD Guidelines for Quantitative ^177Lu SPECT Applied for Dosimetry of Radiopharmaceutical Therapy. J Nucl Med. 2016; 57(1):151-162). The same SPECT/CT system was used in each patient for the entirety of the dosimetry study.
Regions of interest (kidneys, bladder, liver, lumbar vertebrae L2-L4, lacrimal glands, salivary glands and whole body) were drawn on each dataset by a trained image analyst. Lumbar vertebrae L2-L4 was delineated on the CT images (Hindorf C, Glatting G, Chiesa C, Linden O, Flux G, Committee ED. EANM Dosimetry Committee guidelines for bone marrow and whole-body dosimetry. Eur J Nucl Med Mol Imaging. 2010; 37(6):1238-1250) to derived red marrow doses. For kidneys, an ROI was drawn on the SPECT image to include all the uptake seen in the kidneys. Similarly for lacrimal glands, all the uptake observed on the SPECT image at the lacrimal glands location was segmented.
Time-activity curves of the activity in each ROI as a function of time were plotted. These curves were normalized by the known injected activity to arrive at units of fraction of injected activity. Calculations of time-integrated activity coefficient (TIAC, in units of hours) were performed for each region of interest listed above.
Clearance of the tracer was derived from a data-appropriate fit of each organ TAC. The curve fit was optimized using the Akaike information criterion (AIC) and checked visually by an image scientist. Depending on the shape of the TAC, the data was fitted with the sum of one, two or three exponentials or using a rise and fall model. […]

O=C([O-])CC[C@H](NC(=O)N[C@@H](CCCCNC(=O)CCCCCCC(=O)NCCCC[C@@H](NC(=O)[C@@H](Cc1ccccc1)NC(=O)[C@@H](Cc1ccc(O)c(I)c1)NC(=O)CC[C@H](C(=O)[O-])N1CCN(CC(=O)[O-])CCN(CC(=O)[O-])CCN(CC(=O)[O-])CC1)C(=O)[O-])C(=O)[O-])C(=O)[O-].[177Lu+3].[H+].[H+].[H+].[H+].[H+] [^177Lu-PSMA I&T, (3S,7S,26R,29R,32R,37R)-29-benzyl-32-(4-hydroxy-3-iodobenzyl)-5,13,20,28,31,34-hexaoxo-37-(4,7,10-tris(carboxymethyl)-1,4,7,10-tetraazacyclododecan-1-yl)-4,6,12,21,27,30,33-heptaazaheptatriacontane-1,3,7,26,37-pentacarboxylic acid; lutetium-177 (III)]
Absorbed Dose, Adrenals, Mean (6 patients, cycle 1): 0.02 Gy/GBq | Absorbed Dose, Brain, Mean (6 patients, cycle 1): 0.01 Gy/GBq | Absorbed Dose, Esophagus, Mean (6 patients, cycle 1): 0.01 Gy/GBq | Absorbed Dose, Eyes, Mean (6 patients, cycle 1): 0.01 Gy/GBq | Absorbed Dose, Gallbladder wall, Mean (6 patients, cycle 1): 0.02 Gy/GBq | Absorbed Dose, Heart wall, Mean (6 patients, cycle 1): 0.01 Gy/GBq | Absorbed Dose, Kidneys, Mean (6 patients, cycle 1): 0.46 Gy/GBq | Absorbed Dose, Left colon, Mean (6 patients, cycle 1): 0.39 Gy/GBq | Absorbed Dose, Liver, Mean (6 patients, cycle 1): 0.03 Gy/GBq | Absorbed Dose, Lungs, Mean (6 patients, cycle 1): 0.01 Gy/GBq | Absorbed Dose, Osteogenic cells, Mean (6 patients, cycle 1): 0.02 Gy/GBq | Absorbed Dose, Pancreas, Mean (6 patients, cycle 1): 0.02 Gy/GBq | Absorbed Dose, Prostate, Mean (6 patients, cycle 1): 0.02 Gy/GBq | Absorbed Dose, Rectum, Mean (6 patients, cycle 1): 0.37 Gy/GBq | Absorbed Dose, Red Marrow, Mean (6 patients, cycle 1): 0.02 Gy/GBq | Absorbed Dose, Right colon, Mean (6 patients, cycle 1): 0.21 Gy/GBq | Absorbed Dose, Salivary Glands, Mean (6 patients, cycle 1): 0.10 Gy/GBq | Absorbed Dose, Small intestine, Mean (6 patients, cycle 1): 0.05 Gy/GBq | Absorbed Dose, Spleen, Mean (6 patients, cycle 1): 0.02 Gy/GBq | Absorbed Dose, Stomach Wall, Mean (6 patients, cycle 1): 0.01 Gy/GBq | Absorbed Dose, Testes, Mean (6 patients, cycle 1): 0.01 Gy/GBq | Absorbed Dose, Thymus, Mean (6 patients, cycle 1): 0.01 Gy/GBq | Absorbed Dose, Thyroid, Mean (6 patients, cycle 1): 0.01 Gy/GBq | Absorbed Dose, Total Body, Mean (6 patients, cycle 1): 0.02 Gy/GBq | Absorbed Dose, Urinary Bladder wall, Mean (6 patients, cycle 1): 0.37 Gy/GBq | absorbed dose, kidneys (6 patients, cycle 1): 0.46±0.23 Gy/GBq | absorbed dose, lacrimal glands (6 patients, cycle 1): 0.77±0.25 Gy/GBq | absorbed dose, left colon (6 patients, cycle 1): 0.39±0.32 Gy/GBq | absorbed dose, rectum (6 patients, cycle 1): 0.37±0.31 Gy/GBq | absorbed dose, right colon (6 patients, cycle 1): 0.21±0.17 Gy/GBq | absorbed dose, salivary glands (6 patients, cycle 1): 0.10±0.06 Gy/GBq | absorbed dose, urinary bladder wall (6 patients, cycle 1): 0.37±0.20 Gy/GBq | Whole-body time integrated activity coefficient, mean (6 patients, cycle 1, 7.4 GBq, SD 6.7): 16.6 h | projected cumulative absorbed dose to the kidneys after 6 cycles (6 patients): 20.4±10.2 Gy | projected cumulative absorbed dose to the kidneys after 6 cycles (6 patients, listed as 177Lu-PSMA-I&T): 20.4 Gy | risk of kidney toxicities with 6 treatment cycles (conclusion from dosimetry results): possible without the risk of kidney toxicities | Effective Dose Cycle 1 (individual patients (one per Subject ID)): 9.03E−02 mSv/MBq and 3.11E−02 mSv/MBq and 1.11E−01 mSv/MBq and 6.97E−02 mSv/MBq and 8.11E−02 mSv/MBq and 2.68E−02 mSv/MBq | Kidneys Absorbed Dose (Gy/GBq) (individual patients (one per Subject ID), cycle 1): 0.27 Gy/GBq and 0.22 Gy/GBq and 0.48 Gy/GBq and 0.64 Gy/GBq and 0.34 Gy/GBq and 0.81 Gy/GBq | Kidneys Absorbed Dose (Gy) (individual patients (one per Subject ID), cycle 1, actual injected dose): 2.03 Gy and 1.68 Gy and 3.62 Gy and 4.87 Gy and 2.56 Gy and 5.82 Gy | Kidneys Absorbed Dose (Gy) Assuming 7.4 GBq per cycle (individual patients (one per Subject ID), one cycle): 4.8 Gy and 2.5 Gy and 6.0 Gy and 2.0 Gy and 1.7 Gy and 3.6 Gy | Extrapolation of Absorbed Dose to 6 Cycles (Gy) Assuming 7.4 GBq per cycle (kidneys, individual patients (one per Subject ID)): 28.5 Gy and 15.0 Gy and 35.8 Gy and 11.8 Gy and 9.9 Gy and 21.3 Gy | Extrapolation of Absorbed Dose to 6 Cycles (Gy) Assuming 7.4 GBq per cycle, mean (kidneys, mean of 6 patients): 20.4 Gy | Kidneys Absorbed Dose (Gy), Mean (mean of 6 patients, cycle 1): 3.43 Gy | Kidneys Absorbed Dose (Gy/GBq), Mean (mean of 6 patients, cycle 1): 0.46 Gy/GBq | Whole Body TIAC (time integrated activity coefficient), Mean (mean of 6 patients, cycle 1): 16.6 h | Kidneys Absorbed Dose (Gy) Assuming 7.4 GBq per cycle, mean (mean of 6 patients, one cycle): 3.4 Gy
